Target: T1, HIV-1 protease (Human immunodeficiency virus type 1 group M subtype B, UniProt P04585)
T1 construct: The protease (or proteinase), consisting of only 99 amino acids, is among the smallest enzymes known
Assay: In vitro HIV protease inhibitory assay (HIV Protease FITC Assay)
Assay type: biochemical
Conditions: for inhibition at 0.41 µM: HIV-1 Dose 0.410 uM; for inhibition at 0.41 µM / inhibition at 1.23 µM / inhibition at 3.7 µM / inhibition at 11 µM / inhibition at 33 µM / inhibition at 100 µM / inhibition at 0.123 µM / inhibition at 0.37 µM / inhibition at 1.1 µM / inhibition at 3.3 µM / inhibition at 10 µM / inhibition at 30 µM / inhibition at 1 µM: read-out: HIV-1 Protease % Inhib; for inhibition at 1.23 µM: HIV-1 Dose 1.230 uM; for inhibition at 3.7 µM: HIV-1 Dose 3.700 uM; for inhibition at 11 µM: HIV-1 Dose 11.000 uM; for inhibition at 33 µM: HIV-1 Dose 33.000 uM; for Ki: read-out: HIV-1 FITC Ki; for inhibition at 1 µM: HIV-1 Dose 1.000 uM
Procedure, shortened: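 Biotin/FITC-labelled peptide substrate cleaved by HIV-1 protease for 1 h at room temperature in the dark, in 0.1 M sodium acetate pH 5.5, 1.0 M NaCl, 0.05% NP-40. Uncleaved substrate captured on avidin beads and separated by filtration; fluorescence gave % inhibition.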

Structure (SMILES) | inhibition at 100 µM (HIV-1 Dose 100.000 uM) [%] | Ki [nM] | inhibition at 0.123 µM (HIV-1 Dose 0.123 uM) [%] | inhibition at 0.37 µM (HIV-1 Dose 0.370 uM) [%] | inhibition at 1.1 µM (HIV-1 Dose 1.100 uM) [%] | inhibition at 3.3 µM (HIV-1 Dose 3.300 uM) [%] | inhibition at 10 µM (HIV-1 Dose 10.000 uM) [%] | inhibition at 30 µM (HIV-1 Dose 30.000 uM) [%] | inhibition at 1 µM [%] | other results
C=CC(C1=C(O)CC2(CCC3(CC2)OCCO3)OC1=O)c1ccccc1 (stereo not drawn) [Example 113, 12-Hydroxy-11-(1-phenyl-allyl)-1,4,9-trioxa-dispiro[4.2.5.2]pentadec-11-en-10-one] | 107 | 2560 |  |  |  |  |  |  |  | inhibition at 0.41 µM: < 10%; inhibition at 1.23 µM: 15.3%; inhibition at 3.7 µM: 42.8%; inhibition at 11 µM: 79.7%; inhibition at 33 µM: 101%
CCC(Cc1ccccc1)c1oc(=O)c(C(CC)c2ccccc2)c(O)c1Br (stereo not drawn) [Example 111, 6-(1-Benzyl-propyl)-5-bromo-4-hydroxy-3-(1-phenyl-propyl)-pyran-2-one] | 109 | 255 |  |  |  |  |  |  |  | inhibition at 0.41 µM: 41.7%; inhibition at 1.23 µM: 66.2%; inhibition at 3.7 µM: 92.2%; inhibition at 11 µM: 103%; inhibition at 33 µM: 102%
CCC(Cc1ccccc1)c1cc(O)c(C(c2cccc(NC(=O)Nc3ccc(OC)cc3)c2)C2CC2)c(=O)o1 (stereo not drawn) [Example 214, 3-(α-Cyclopropyl-meta-[(4-methoxyphenylaminocarbonyl)amino]benzyl)-6-(α-ethylphenethyl)-4-hydroxy-2H-pyran-2-one] |  |  | < 10 | < 10 | 32 | 66 | 79.5 | 86 |  | 
CCC(C1=C(O)CC2(CCCC2)OC1=O)c1ccccc1 (stereo not drawn) [Example 130, 4-Hydroxy-3-(1-phenylpropyl)-1-oxa-spiro[5.4]-dec-3-en-2-one] |  |  | < 10 | < 10 | < 10 | < 10 | < 10 | 13.1 |  | 
O=c1oc(CCC2CC2)cc(O)c1C(c1ccccc1)C1CC1 (stereo not drawn) [Example 89, 6-(2-Cyclopropyl-ethyl)-3-(cyclopropyl-phenyl-methyl)-4-hydroxy-pyran-2-one] | 84 |  |  |  |  |  | 70 |  | < 10 | HIV-1 Protease % Inhib (dose not given): <10%
CCC(c1ccccc1)c1c(O)cc(CCc2ccccc2F)oc1=O (stereo not drawn) [Example 7, 3-(α-ethylbenzyl)-6-(o-fluorophenethyl)-4-hydroxy-2H-Pyran-2-one] | 109 |  |  |  |  |  | 74.1 |  | 14 | IC50: 6400 nM; HIV-1 Protease % Inhib (HIV-1 Dose 100.000 uM): 109%
Cc1cc(O)c(C(c2ccccc2)C2CC2)c(=O)o1 (stereo not drawn) [Example 20, 3-(α-cyclopropylbenzyl)-4-hydroxy-6-methyl-2H-Pyran-2-one] | 60.6 |  |  |  |  |  | < 10 |  | < 10 | 
CCC(Cc1ccccc1)c1cc(O)c(C(c2cccc(NS(=O)(=O)c3ccc(OC)cc3)c2)C2CC2)c(=O)o1 (stereo not drawn) [Example 185, 3-(α-Cyclopropyl-meta-(4-methoxyphenylsulfonylamino)benzyl)-6-(α-ethylphenethyl)-4-hydroxy-2H-pyran-2-one] |  |  | 40.5 | 71.4 | 89.1 | 95.9 | 103 | 92.9 |  | 
CCCC1(CCCc2ccccc2)CC(O)=C(C(CCc2ccccc2)c2ccccc2)C(=O)O1 (stereo not drawn) [Example 239, 2H-Pyran-2-one, 5,6-dihydro-4-hydroxy-3-(1,3-diphenylpropyl)-6-(3-phenylpropyl)-6-propyl-] |  | 99 | < 10 | 35.8 | 63.9 | 79.8 | 91 | 85.7 |  | 
C=CCCc1cc(O)c(C(c2ccccc2)C2CC2)c(=O)o1 (stereo not drawn) [Example 98, 6-But-3-enyl-3-(cyclopropyl-phenyl-methyl)-4-hydroxy-pyran-2-one] | 110 |  |  |  |  |  | 93.5 |  | 50.8 | 
CCC(Cc1ccc(F)cc1)c1cc(O)c(C(c2ccccc2)C2CC2)c(=O)o1 (stereo not drawn) [Example 154, 3-(α-cyclopropylbenzyl)-4-hydroxy-6-(α-ethyl-p-flurorphenethyl)-2H-pyran-2-one] |  | 39 | 21.9 | 57.3 | 84.1 | 86.7 | 98.1 | 92.9 |  | 
CCC(Cc1ccc2ccccc2c1)c1cc(O)c(C(CC)c2ccccc2)c(=O)o1 (stereo not drawn) [Example 17, 3-(α-ethylbenzyl)-4-hydroxy-6-(1-ethyl-2-naphth-2-ylethyl)-2H-Pyran-2-one] | 73.6 |  |  |  |  |  | 49.5 |  | < 10 | 
O=c1oc(CC(O)c2ccsc2)cc(O)c1C(c1ccccc1)C1CC1 (stereo not drawn) [Example 153, 3-(α-cyclopropylbenzyl)-4-hydroxy-6-(2-(thiophen-3-yl)-2-hydroxyethyl)-2H-pyran-2-one] | 120 |  | < 10 | 17.7 | 40.3 | 69 | 88.6 | 99.7 |  | 
CCC(Cc1ccccc1)c1cc(O)c(C(c2cccc(NS(=O)(=O)CC)c2)C2CC2)c(=O)o1 (stereo not drawn) [Example 247] |  | 30.4 | 14.1 | 47 | 73.1 | 86.7 | 96.1 | 97 |  | 
CCCC1(c2ccccc2)CC(=O)C(C(CC)c2cccc(O)c2)C(=O)O1 (stereo not drawn) [Example 35, Dihydro-3-(1-(3-hydroxyphenyl)propyl]-6-phenyl-6-propyl-2H-pyran-2,4(3H)-dione] | 73.6 |  |  |  |  |  | 79.8 |  | 23.8 | 
COCOCc1ccc(C(C2=C(O)CC(CCc3ccccc3)(CC(C)C)OC2=O)C2CC2)s1 (stereo not drawn) [Example 232, 2H-Pyran-2-one, 3-(α-cyclopropyl-[5-(methoxymethoxy-methyl)-thiophen-2-yl]-methyl)-5,6-dihydro-4-hydroxy-6-(2-methylpropyl)-6-(2-phenylethyl)-] |  | 76 |  |  |  |  |  |  |  | HIV-1 Protease % Inhib (HIV-1 Dose 0.123 uM): 10.57%; HIV-1 Protease % Inhib (HIV-1 Dose 0.370 uM): 36.97%; HIV-1 Protease % Inhib (HIV-1 Dose 1.100 uM): 73.74%; HIV-1 Protease % Inhib (HIV-1 Dose 3.300 uM): 93.56%; HIV-1 Protease % Inhib (HIV-1 Dose 10.000 uM): 103.56%; HIV-1 Protease % Inhib (HIV-1 Dose 30.000 uM): 98.87%
C=CC(C1=C(O)CC2(CCCCCCC2)OC1=O)c1ccccc1 (stereo not drawn) [Example 125, 4-Hydroxy-3-(1-phenyl-2-propenyl)-1-oxaspiro[5.7]tridec-3-en-2-one] |  |  | < 10 | < 10 | 15.4 | 45.7 | 71 | 89.7 |  | 
CCC(CC1CC1)c1cc(O)c(C(c2ccccc2)C2CC2)c(=O)o1 (stereo not drawn) [Example 90, 6-(1-Cyclopropylmethyl-propyl)-3-(cyclopropyl-phenyl-methyl)-4-hydroxy-pyran-2-one] | 95.9 |  |  |  |  |  | 95.1 |  | 61.2 | HIV-1 Protease % Inhib (HIV-1 Dose 100.000 uM): 96%
CCC(Cc1ccccc1)c1cc(O)c(C(c2cccc(NS(=O)(=O)c3cccc4cccnc34)c2)C2CC2)c(=O)o1 (stereo not drawn) [Example 229, 3-(α-Cyclopropyl-meta-(8-quinolinesulfonylamino)benzyl)-6-(α-ethylphenethyl)-4-hydroxy-2H-pyran-2-one] |  | 3.5 | 52.2 | 95.9 | 106 | 106 | 113 | 102 |  | 
